Measured values: patent publication US11357856B2, “Lipids for delivery of active agents” (Acuitas Therapeutics, Inc., priority 2017, dated 2022)

Key:
[1] = Determination of pKa of formulated lipids (TNS fluorescence assay in lipid nanoparticles); type: physicochemical; settings: cationic lipid formulated in lipid nanoparticles (cationic lipid/DSPC/cholesterol/PEG-lipid 50/10/38.5/1.5 mol %); pH of half-maximal TNS fluorescence
Procedure: As described elsewhere, the pKa of formulated cationic lipids is correlated with the effectiveness of LNPs for delivery of nucleic acids (see Jayaraman et al, Angewandte Chemie, International Edition (2012), 51(34), 8529-8533; Semple et al, Nature Biotechnology 28, 172-176 (2010)). The preferred range of pKa is ˜5 to ˜7. […] Lipid nanoparticles comprising cationic lipid/DSPC/cholesterol/PEG-lipid (50/10/38.5/1.5 mol %) in PBS at a concentration of 0.4 mM total lipid are prepared using the in-line process as described in Example 1. TNS is prepared as a 100 μM stock solution in distilled water. Vesicles are diluted to 24 μM lipid in 2 mL of buffered solutions containing, 10 mM HEPES, 10 mM MES, 10 mM ammonium acetate, 130 mM NaCl, where the pH ranged from 2.5 to 11. An aliquot of the TNS solution is added to give a final concentration of 1 μM and following vortex mixing fluorescence intensity is measured at room temperature in a SLM Aminco Series 2 Luminescence Spectrophotometer using excitation and emission wavelengths of 321 nm and 445 nm. A sigmoidal best fit analysis is applied to the fluorescence data and the pKa was measured as the pH giving rise to half-maximal fluorescence intensity.

[2] = test system: luciferase expression in the liver (FLuc mRNA); test: Luciferase mRNA in vivo evaluation using lipid nanoparticle compositions (liver luciferase expression); set-up: species or system mice; settings: LNP 50/10/38.5/1.5 (PEG-DMA) or 47.5/10/40.8/1.7, tail vein injection, liver 4 hours after administration; for Liver Luc @ 0.5 mg/kg (ng luc/g liver): 0.5 mg mRNA/kg; for Liver Luc @ 0.3 mg/kg (ng luc/g liver): 0.3 mg mRNA/kg; for Liver Luc @ 1.0 mg/kg (ng luc/g liver): 1.0 mg mRNA/kg
Procedure: Lipid nanoparticles are prepared and tested according to the general procedures described in PCT Pub. Nos. WO 2015/199952 and WO 2017/004143, the full disclosures of which are incorporated herein by reference. Briefly, cationic lipid, DSPC, cholesterol and PEG-lipid are solubilized in ethanol at a molar ratio of about 50:10:38.5:1.5 or about 47.5:10:40.8:1.7. Lipid nanoparticles (LNP) are prepared at a total lipid to mRNA weight ratio of approximately 10:1 to 30:1. The mRNA is diluted to 0.2 mg/mL in 10 to 50 mM citrate or acetate buffer, pH 4. Syringe pumps are used to mix the ethanolic lipid solution with the mRNA aqueous solution at a ratio of about 1:5 to 1:3 (vol/vol) with total flow rates above 15 mL/min. The ethanol is then removed and the external buffer replaced with PBS by dialysis. Finally, the lipid nanoparticles are filtered through a 0.2 μm pore sterile filter. Lipid nanoparticle particle size is approximately 55-95 nm diameter, and in some instances approximately 70-90 nm diameter as determined by quasi-elastic light scattering using a Malvern Zetasizer Nano ZS (Malvern, UK).
Studies are performed in 6-8 week old female C57BL/6 mice (Charles River) or 8-10 week old CD-1 (Harlan) mice (Charles River) according to guidelines established by an institutional animal care committee (ACC) and the Canadian Council on Animal Care (CCAC). Varying doses of mRNA-lipid nanoparticle are systemically administered by tail vein injection and animals euthanized at a specific time point (e.g., 4 hours) post-administration. Liver and spleen are collected in pre-weighed tubes, weights determined, immediately snap frozen in liquid nitrogen and stored at −80° C. until processing for analysis.
For liver, approximately 50 mg is dissected for analyses in a 2 mL FastPrep tubes (MP Biomedicals, Solon Ohio). ¼″ ceramic sphere (MP Biomedicals) is added to each tube and 500 μL of Glo Lysis Buffer—GLB (Promega, Madison Wis.) equilibrated to room temperature is added to liver tissue. Liver tissues are homogenized with the FastPrep24 instrument (MP Biomedicals) at 2×6.0 m/s for 15 seconds. Homogenate is incubated at room temperature for 5 minutes prior to a 1:4 dilution in GLB and assessed using SteadyGlo Luciferase assay system (Promega). Specifically, 50 μL of diluted tissue homogenate is reacted with 50 μL of SteadyGlo substrate, shaken for 10 seconds followed by 5 minute incubation and then quantitated using a CentroXS^3 LB 960 luminometer (Berthold Technologies, Germany). The amount of protein assayed is determined by using the BCA protein assay kit (Pierce, Rockford Ill.). Relative luminescence units (RLU) are then normalized to total ug protein assayed. To convert RLU to ng luciferase a standard curve is generated with QuantiLum Recombinant Luciferase (Promega).
The FLuc mRNA (L-6107 or L-7202) from Trilink Biotechnologies will express a luciferase protein, originally isolated from the firefly, photinus pyralis. FLuc is commonly used in mammalian cell culture to measure both gene expression and cell viability. It emits bioluminescence in the presence of the substrate, luciferin. This capped and polyadenylated mRNA is fully substituted with respect to uridine and/or cytidine nucleosides.
The cationic lipids shown in Table 2 have previously been tested with nucleic acids. For comparative purposes, these lipids were also used to formulate lipid nanoparticles containing the FLuc mRNA (L-6107) using an in line mixing method, as described in Example 1 and in PCT/US10/22614, which is hereby incorporated by reference in its entirety. Lipid nanoparticles were formulated using the following molar ratio: 50% Cationic lipid/10% distearoylphosphatidylcholine (DSPC)/38.5% Cholesterol/1.5% PEG lipid (“PEG-DMG”, i.e., 1-(monomethoxy-polyethyleneglycol)-2,3-dimyristoylglycerol, with an average PEG molecular weight of 2000). In alternate embodiments, cationic lipid, DSPC, cholesterol and PEG-lipid are formulated at a molar ratio of approximately 47.5:10:40.8:1.7. […]

| pKa [1] | Compound | Liver Luc @ 0.5 mg/kg (ng luc/g liver) [2] [ng luc/g liver] | Liver Luc @ 0.3 mg/kg (ng luc/g liver) [2] [ng luc/g liver] | Liver Luc @ 1.0 mg/kg (ng luc/g liver) [2] [ng luc/g liver] |
| --- | --- | --- | --- | --- |
| 5.87 | CCCCCCCCC(CCCCCC)CN(CCCCCN(CCO)CCO)CC(CCCCCC)CCCCCCCC (stereo not drawn) [Compound 16] | 52 ± 26 | – | – |
| 5.55 | CCCCCCCCC(CCCCCC)CN(CCCCN(C)C)CC(CCCCCC)CCCCCCCC (stereo not drawn) [Compound 4] | – | 87 ± 11 | 233 ± 121 |
| 6.49 | CCCCCCCCC(CCCCCC)CN(CCCNC)CC(CCCCCC)CCCCCCCC (stereo not drawn) [Compound 17] | 12 ± 5 | – | – |
| 5.77 | CCCCCCCCC(CCCCCC)CN(CCCCCN(C)C)CC(CCCCCC)CCCCCCCC (stereo not drawn) [Compound 5] | – | 2840 ± 757 | 13739 ± 7631 |
| 5.91 | CCCCCCCCC(CCCCCC)CN(CCCCCCN(C)C)CC(CCCCCC)CCCCCCCC (stereo not drawn) [Compound 15] | 2417 ± 833 | – | – |
